Reference: PubChem BioAssay AID1963842 (Molecular Pharmacology Branch, DTP, NCI, 2024)

Tested on: 677734-321-R-J1-PDC complex spheroid viability
Experiment: Anticancer human tumor 677734-321-R-J1-PDC patient-derived soft tissue sarcoma cell line growth inhibition [POLQ]
Details: for IC50: curve of first compound; for viability, T/C: stronger effect = lower value
Summary of the method: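 Complex spheroid viability model combining PDC tumour cells with endothelial (HUVEC) and MSC stromal cells. Novobiocin, ART-558 or RP6685 were tested singly and in combination with standard and investigational anticancer drugs. Each was titrated in half-log steps from near clinical Cmax, or from 10 microM where Cmax was unknown.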

[1] = second compound 0.0316 µM, first compound 0.0316 µM
[2] = second compound 0.0316 µM, first compound 0.1 µM
[3] = second compound 0.0316 µM, first compound 0.316 µM
[4] = second compound 0.0316 µM, first compound 1 µM
[5] = second compound 0.0316 µM, first compound 3.16 µM
[6] = second compound 0.0316 µM, first compound 10 µM
[7] = second compound 0.1 µM, first compound 0.0316 µM
[8] = second compound 0.1 µM, first compound 0.1 µM
[9] = second compound 0.1 µM, first compound 0.316 µM
[10] = second compound 0.1 µM, first compound 1 µM
[11] = second compound 0.1 µM, first compound 3.16 µM
[12] = second compound 0.1 µM, first compound 10 µM
[13] = second compound 0.316 µM, first compound 0.0316 µM
[14] = second compound 0.316 µM, first compound 0.1 µM
[15] = second compound 0.316 µM, first compound 0.316 µM
[16] = second compound 0.316 µM, first compound 1 µM
[17] = second compound 0.316 µM, first compound 3.16 µM
[18] = second compound 0.316 µM, first compound 10 µM
[19] = second compound 1 µM, first compound 0.0316 µM
[20] = second compound 1 µM, first compound 0.1 µM
[21] = second compound 1 µM, first compound 0.316 µM
[22] = second compound 1 µM, first compound 1 µM
[23] = second compound 1 µM, first compound 3.16 µM
[24] = second compound 1 µM, first compound 10 µM
[25] = second compound 3.16 µM, first compound 0.0316 µM
[26] = second compound 3.16 µM, first compound 0.1 µM
[27] = second compound 3.16 µM, first compound 0.316 µM
[28] = second compound 3.16 µM, first compound 1 µM
[29] = second compound 3.16 µM, first compound 3.16 µM
[30] = second compound 3.16 µM, first compound 10 µM
[31] = second compound 10 µM, first compound 0.0316 µM
[32] = second compound 10 µM, first compound 0.1 µM
[33] = second compound 10 µM, first compound 0.316 µM
[34] = second compound 10 µM, first compound 1 µM
[35] = second compound 10 µM, first compound 3.16 µM
[36] = second compound 10 µM, first compound 10 µM
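Note: spheroids exposed to compounds for one week.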
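Throughout, for viability, T/C: 100% = vehicle DMSO treated spheroids.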

COc1cc2cc(C(=O)CCC(=O)O)sc2cc1OC + Nc1ccc(C#CCN(C(=O)Cc2ncc(C(F)(F)F)cc2C(F)(F)F)c2ccc(F)cc2)nn1
IC50 (second compound 0.0316 µM): > 10 µM
IC50 (second compound 0.1 µM): > 10 µM
IC50 (second compound 0.316 µM): > 10 µM
IC50 (second compound 1 µM): > 10 µM
IC50 (second compound 3.16 µM): > 10 µM
IC50 (second compound 10 µM): > 10 µM
viability, T/C [1]: 105%
viability, T/C [2]: 105%
viability, T/C [3]: 103%
viability, T/C [4]: 93.3%
viability, T/C [5]: 108%
viability, T/C [6]: 104%
viability, T/C [7]: 103%
viability, T/C [8]: 98.5%
viability, T/C [9]: 100%
viability, T/C [10]: 98.5%
viability, T/C [11]: 115%
viability, T/C [12]: 110%
viability, T/C [13]: 104%
viability, T/C [14]: 102%
viability, T/C [15]: 103%
viability, T/C [16]: 108%
viability, T/C [17]: 105%
viability, T/C [18]: 116%
viability, T/C [19]: 105%
viability, T/C [20]: 91.4%
viability, T/C [21]: 105%
viability, T/C [22]: 104%
viability, T/C [23]: 95.2%
viability, T/C [24]: 109%
viability, T/C [25]: 97%
viability, T/C [26]: 98.1%
viability, T/C [27]: 113%
viability, T/C [28]: 109%
viability, T/C [29]: 109%
viability, T/C [30]: 112%
viability, T/C [31]: 104%
viability, T/C [32]: 110%
viability, T/C [33]: 94.6%
viability, T/C [34]: 95%
viability, T/C [35]: 107%
viability, T/C [36]: 86.3%

COc1ccc([C@@H](O)c2cc(-c3ncnc4cc(N5CCOCC5)ccc34)c(F)cc2Cl)nn1 + Cc1cccc(N(C)C(=O)C2C(O)CCN2c2nc(C)cc(C(F)(F)F)c2C#N)c1
IC50 (second compound 0.0316 µM): > 10 µM
IC50 (second compound 0.1 µM): 9.31 µM
IC50 (second compound 0.316 µM): 9.22 µM
IC50 (second compound 1 µM): > 10 µM
IC50 (second compound 3.16 µM): > 10 µM
IC50 (second compound 10 µM): 7.64 µM
viability, T/C [1]: 109%
viability, T/C [2]: 103%
viability, T/C [3]: 96.2%
viability, T/C [4]: 93.4%
viability, T/C [5]: 74.9%
viability, T/C [6]: 53.7%
viability, T/C [7]: 99.3%
viability, T/C [8]: 98.9%
viability, T/C [9]: 95%
viability, T/C [10]: 92.9%
viability, T/C [11]: 79.4%
viability, T/C [12]: 47.6%
viability, T/C [13]: 105%
viability, T/C [14]: 101%
viability, T/C [15]: 93.8%
viability, T/C [16]: 91.3%
viability, T/C [17]: 77.4%
viability, T/C [18]: 47.2%
viability, T/C [19]: 107%
viability, T/C [20]: 97.8%
viability, T/C [21]: 92.7%
viability, T/C [22]: 90.1%
viability, T/C [23]: 81.2%
viability, T/C [24]: 55.5%
viability, T/C [25]: 102%
viability, T/C [26]: 101%
viability, T/C [27]: 90.8%
viability, T/C [28]: 95.7%
viability, T/C [29]: 68.7%
viability, T/C [30]: 50.9%
viability, T/C [31]: 102%
viability, T/C [32]: 90.4%
viability, T/C [33]: 94.6%
viability, T/C [34]: 92.5%
viability, T/C [35]: 69.7%
viability, T/C [36]: 44%

COc1ccc([C@@H](O)c2cc(-c3ncnc4cc(N5CCOCC5)ccc34)c(F)cc2Cl)nn1 + Nc1ccc(C#CCN(C(=O)Cc2ncc(C(F)(F)F)cc2C(F)(F)F)c2ccc(F)cc2)nn1
IC50 (second compound 0.0316 µM): 7.37 µM
IC50 (second compound 0.1 µM): 8.81 µM
IC50 (second compound 0.316 µM): 9.17 µM
IC50 (second compound 1 µM): 7.89 µM
IC50 (second compound 3.16 µM): 6.66 µM
IC50 (second compound 10 µM): > 10 µM
viability, T/C [1]: 89.5%
viability, T/C [2]: 96.2%
viability, T/C [3]: 76.8%
viability, T/C [4]: 88.4%
viability, T/C [5]: 72.5%
viability, T/C [6]: 41.7%
viability, T/C [7]: 90.2%
viability, T/C [8]: 106%
viability, T/C [9]: 96.2%
viability, T/C [10]: 90.8%
viability, T/C [11]: 67.4%
viability, T/C [12]: 47.8%
viability, T/C [13]: 105%
viability, T/C [14]: 93.1%
viability, T/C [15]: 80.9%
viability, T/C [16]: 95.4%
viability, T/C [17]: 71.5%
viability, T/C [18]: 47.6%
viability, T/C [19]: 108%
viability, T/C [20]: 93.9%
viability, T/C [21]: 94%
viability, T/C [22]: 90.4%
viability, T/C [23]: 73.8%
viability, T/C [24]: 43.2%
viability, T/C [25]: 103%
viability, T/C [26]: 92.6%
viability, T/C [27]: 82.8%
viability, T/C [28]: 75.5%
viability, T/C [29]: 61.1%
viability, T/C [30]: 43.4%
viability, T/C [31]: 102%
viability, T/C [32]: 99.7%
viability, T/C [33]: 77.7%
viability, T/C [34]: 73.7%
viability, T/C [35]: 72.9%
viability, T/C [36]: 45.8%

CC(C)n1c(=O)n(C)c2cnc3cc(F)c(-c4ccc(OCCCN5CCCCC5)nc4)cc3c21 + Cc1cccc(N(C)C(=O)C2C(O)CCN2c2nc(C)cc(C(F)(F)F)c2C#N)c1
IC50 (second compound 0.0316 µM): > 10 µM
IC50 (second compound 0.1 µM): > 10 µM
IC50 (second compound 0.316 µM): > 10 µM
IC50 (second compound 1 µM): > 10 µM
IC50 (second compound 3.16 µM): > 10 µM
IC50 (second compound 10 µM): > 10 µM
viability, T/C [1]: 104%
viability, T/C [2]: 98.6%
viability, T/C [3]: 104%
viability, T/C [4]: 98.2%
viability, T/C [5]: 99%
viability, T/C [6]: 92.4%
viability, T/C [7]: 104%
viability, T/C [8]: 101%
viability, T/C [9]: 99.4%
viability, T/C [10]: 100%
viability, T/C [11]: 98.7%
viability, T/C [12]: 88.6%
viability, T/C [13]: 101%
viability, T/C [14]: 91.6%
viability, T/C [15]: 102%
viability, T/C [16]: 109%
viability, T/C [17]: 106%
viability, T/C [18]: 99.8%
viability, T/C [19]: 110%
viability, T/C [20]: 93.5%
viability, T/C [21]: 99%
viability, T/C [22]: 108%
viability, T/C [23]: 104%
viability, T/C [24]: 88.1%
viability, T/C [25]: 98.7%
viability, T/C [26]: 102%
viability, T/C [27]: 109%
viability, T/C [28]: 106%
viability, T/C [29]: 99.3%
viability, T/C [30]: 92.4%
viability, T/C [31]: 101%
viability, T/C [32]: 98.8%
viability, T/C [33]: 97.5%
viability, T/C [34]: 95.8%
viability, T/C [35]: 97.4%
viability, T/C [36]: 92.5%

CC(C)n1c(=O)n(C)c2cnc3cc(F)c(-c4ccc(OCCCN5CCCCC5)nc4)cc3c21 + COC1C(OC(N)=O)C(O)C(Oc2ccc3c(O)c(NC(=O)c4ccc(O)c(CC=C(C)C)c4)c(=O)oc3c2C)OC1(C)C
IC50 (second compound 0.0316 µM): > 10 µM
IC50 (second compound 0.1 µM): > 10 µM
IC50 (second compound 0.316 µM): > 10 µM
IC50 (second compound 1 µM): > 10 µM
IC50 (second compound 3.16 µM): > 10 µM
IC50 (second compound 10 µM): > 10 µM
viability, T/C [1]: 117%
viability, T/C [2]: 104%
viability, T/C [3]: 109%
viability, T/C [4]: 107%
viability, T/C [5]: 111%
viability, T/C [6]: 110%
viability, T/C [7]: 104%
viability, T/C [8]: 109%
viability, T/C [9]: 106%
viability, T/C [10]: 111%
viability, T/C [11]: 117%
viability, T/C [12]: 101%
viability, T/C [13]: 108%
viability, T/C [14]: 107%
viability, T/C [15]: 106%
viability, T/C [16]: 113%
viability, T/C [17]: 112%
viability, T/C [18]: 106%
viability, T/C [19]: 108%
viability, T/C [20]: 102%
viability, T/C [21]: 113%
viability, T/C [22]: 113%
viability, T/C [23]: 109%
viability, T/C [24]: 107%
viability, T/C [25]: 107%
viability, T/C [26]: 107%
viability, T/C [27]: 106%
viability, T/C [28]: 115%
viability, T/C [29]: 104%
viability, T/C [30]: 107%
viability, T/C [31]: 109%
viability, T/C [32]: 106%
viability, T/C [33]: 111%
viability, T/C [34]: 113%
viability, T/C [35]: 106%
viability, T/C [36]: 102%
